Measurements reported in patent US7977379B2, “Method for angiogenesis inhibition or immunostimulation” (priority 2002, dated 2011).

Tests used:
[1] = tested on: angiogenesis induced by means of MATRIGEL matrix (heparin, a-FGF); test: Test Example 4: angiogenesis induced by […] matrix (same method as test example 1); assay type: in vivo, C57BL/6 female mice; conditions: for angiogenesis inhibition effect (in words): MATRIGEL weight and hemoglobin vs control group; for MATRIGEL weight / Quantity of hemoglobin: sixth day, n=5, mean±SE
Description: More specifically, normal mice (5 mice/1 group) were used after breeding C57BL/6 female mice (5 week old, purchased from Charles River JAPAN, Inc.) preliminarily for one week. While cooling test materials as shown in the following, each of the test materials 0.5 ml were transplanted to subcutaneous of abdomen of the mice. […] was taken out on the sixth day after transplantation, and state of angiogenesis was observed. In addition, the […] was freeze-dried, and it was weighed. […] Group 0 of nothing addition: […]

[2] = tested on: angiogenesis induced by means of MATRIGEL matrix (heparin, a-FGF); test: Test Example 1: angiogenesis induced by […] matrix transplanted subcutaneously (method of Passaniti et al); assay type: in vivo, C57BL/6 female mice; conditions: for angiogenesis inhibition effect (in words): MATRIGEL weight and hemoglobin vs control group; for MATRIGEL Matrix weight / Quantity of hemoglobin: sixth day, n=5, mean±SE; for MATRIGEL Matrix weight: freeze-dried
Description: Angiogenesis inhibition action of anhydrous glutamic acid, its derivatives, and various processed materials containing them concerning the present invention was examined by degree of angiogenesis induced by means of […]™ matrix (made by Becton Dikinson Labware Company, it is “cell culture backing material”, following “[…]”.) according to a method of Passaniti et al (Laboratory Invest., Vol. 67, Page 519-528, 1992).
An example of the […] matrix is shown with the following: BD Matrigel Basement Membrane Matrix is a solubilized basement membrane preparation extracted from the Engelbreth-Holm-Swarm (EHS) mouse sarcoma, a tumor rich in ECM proteins. Its major component is laminin, followed by collagen IV, heparan sulfate proteoglycans, entactin and nidogen.35 It also contains TGF-β fibroblast growth factor, tissue plasminogen activator36 and other growth factors which occur naturally in the EHS tumor. At room temperature, BD Matrigel Matrix polymerizes to produce biologically active matrix material resembling the mammalian cellular basement membrane.
More specifically, normal mice (5 mice/1 group) were used after breeding C57BL/6 female mice (5 week old, purchased from Charles River JAPAN, Inc.) preliminarily for one week. While cooling test materials as shown in the following, each of the test materials 0.5 ml were transplanted to subcutaneous of abdomen of the mice. […] was taken out on the sixth day after transplantation, and state of angiogenesis was observed. In addition, the […] was freeze-dried, and it was estimated the weight. Furthermore, pure water 1 ml was added to the […]. After homogenizing by Polytron and centrifuging at 2000 rpm for five minutes, supernatant was filtrated through filter with 0.2 μm and hemoglobin dosage was measured by using Hemoglobin-TestWako™ (made by Wako Pure Chemical Industries, Ltd.).
Group 0 of nothing addition: […]
Control group: […], heparin (64 units), Acidic Fibroblast Growth Factor (it is abbreviated to a-FGF as follows.) (1 ng/ml)
Group 1 of test material addition: […], heparin (64 units), a-FGF (1 ng/ml), sample 3 (800 μg/ml)
Group 2 of test material addition: […], heparin (64 units), a-FGF (1 ng/ml), sample 3 (400 μg/ml)
Group 3 of test material addition: […], heparin (64 units), a-FGF (1 ng/ml), sample 3 (200 μg/ml)
Group 4 of test material addition: […], heparin (64 units), a-FGF (1 ng/ml), sample 4 (800 μg/ml)
Group 5 of test material addition: […], heparin (64 units), a-FGF (1 ng/ml), sample 1 (600 μg/ml)
Group 6 of test material addition: […], heparin (64 units), a-FGF (1 ng/ml), sample 2 (800 μg/ml)
Group 7 of test material addition: […], heparin (64 units), a-FGF (1 ng/ml), sample1+sample 3 (for each 200 μg/ml)
Group 8 of test material addition: […], heparin (64 units), a-FGF (1 ng/ml), sample 5 (600 μg/ml)
Group 9 of test material addition: […], heparin (64 units), a-FGF (1 ng/ml), reference sample 1 (800 μg/ml)
As is apparent from each table, in control group, angiogenesis was promoted remarkably and weight of […] and hemoglobin dosage were increased compared with a group 0 of nothing addition. […] However, the angiogenesis inhibition effect was small with reference sample 1 (hot water extract of an agaricus mushroom).

[3] = material 800 μg/mL in MATRIGEL with heparin and a-FGF
[4] = material 200 μg/mL in MATRIGEL with heparin and a-FGF
[5] = material 400 μg/mL in MATRIGEL with heparin and a-FGF

| SMILES | angiogenesis inhibition effect (in words) [1] | MATRIGEL weight [1, 3] | Quantity of hemoglobin [1, 3] | angiogenesis inhibition effect (in words) [2] | MATRIGEL Matrix weight [2, 3] | Quantity of hemoglobin [2, 3] | also measured |
| --- | --- | --- | --- | --- | --- | --- | --- |
| O=C1CCC(C(=O)O)N1.[Na] (racemic) [sample 9, DL-pyroglutamic acid sodium] | slightly low, but almost equal to sample 8 | 209.0 ± 30.8 mg | 15.8 ± 2.7 mg/MATRIGEL | – | – | – | – |
| Cl.N[C@@H](CCC(=O)O)C(=O)O [sample 3, anhydrous L-glutamate acid hydrochloride] | – | – | – | excellent angiogenesis inhibition effect | 110.9 ± 11.4 mg | 3.9 ± 0.5 mg | MATRIGEL Matrix weight [2, 4]: 276.6 ± 27.6 mg; Quantity of hemoglobin [2, 4]: 21.5 ± 4.0 mg; MATRIGEL Matrix weight [2, 5]: 232.2 ± 52.7 mg; Quantity of hemoglobin [2, 5]: 15.5 ± 4.6 mg |
| Cl.NC(CCC(=O)O)C(=O)O (racemic) [sample 4, anhydrous DL-glutamate acid hydrochloride] | – | – | – | slightly low, but almost equal to sample 3 | 237.3 ± 30.1 mg | 13.0 ± 2.9 mg | – |
| O=C1CC[C@@H](C(=O)O)N1.[Na] [sample 8, L-pyroglutamic acid sodium] | excellent angiogenesis inhibition effect | 121.5 ± 28.1 mg | 4.8 ± 1.2 mg/MATRIGEL | – | – | – | MATRIGEL weight [1, 4]: 265.3 ± 18.6 mg; Quantity of hemoglobin [1, 4]: 23.4 ± 2.0 mg/MATRIGEL; MATRIGEL weight [1, 5]: 190.2 ± 30.4 mg; Quantity of hemoglobin [1, 5]: 17.5 ± 3.6 mg/MATRIGEL |
| C[C@H](N)C(=O)O [alanine, reference compound] | not recognized | – | – | – | – | – | – |
| O=C(O)[C@@H]1CCCN1 [proline, reference compound] | not recognized | – | – | – | – | – | – |
